Results taken from patent US20210008104A1, “COMPOSITIONS AND METHODS FOR INHIBITING HIV-1 REVERSE TRANSCRIPTASE” (The United States of America, as represented by the …, priority 2017, published 2021).
“Also recorded” adds a separate entry of the source. Each block holds one compound with its values, some of them ahead of it.

What was measured:
[1] = target: T1, pol β-nicked DNA complexes (Homo sapiens, UniProt P06746); assay: Time-lapse crystallography of the reverse reaction
T1 construct: made in house
Protocol: Binary complex crystals with nicked DNA were grown as previously described43. The time-lapse crystallography was performed as before11 and is briefly summarized here. Binary pol β/DNA complex crystals were first transferred to a cryosolution containing 15% ethylene glycol, 50 mM imidazole, pH 7.5, 20% PEG3350, 90 mM sodium acetate, 2 mM PNP and 50 mM CaCl2) for 1 h. These ground state (GS) ternary complex crystals were then transferred to a cryosolution containing 200 mM MgCl2 for varying times. All reactions were stopped by freezing the crystals at 100K before data collection at the home source, 1.54 Å, or the Advanced Photon Source, 1.0 Å (Argonne National Laboratory). In house data collection was done on a SATURN92 CCD detector system mounted on a […] rotating anode generator. This allows for anomalous data detection after phasing by molecular replacement. […] Initial models were determined using molecular replacement with the open binary (PDB ID 3ISB) or closed ternary (PDB ID 2FMS) structures of pol β and all Rfree flags were taken from the starting model. […] The metal-ligand coordination restraints were generated by ReadySet (PHENIX) and not used until the final rounds of refinement. […] Ramachandran analysis determined 100% of nonglycine residues lie in allowed regions and at least 97% in favored regions.

human DNA polymerase β [2] = target: T2, human DNA polymerase β (Homo sapiens, UniProt P06746); details: [32P]PPi into dCTP, slope/enzyme-DNA complex
Protocol: Pyrophosphate exchange assay. Pol β (2.5 μM) was pre-incubated with 500 nM unlabeled nicked DNA substrate containing a matched primer terminal base pair (G-C, template-primer) in reaction buffer with 20 mM MgCl2 and manually mixed (1:1, v/v) with a prewarmed solution of reaction buffer, 2 mM [^32P] PPi, and 100 μM dCTP. Aliquots were withdrawn at various time points and quenched with 1 vol. of 0.3 M EDTA. Quenched reactions mixtures were applied to PEI cellulose plates and developed in 0.3 M potassium phosphate buffer, pH 8.0. Plates were scanned followed by quantitation using a phosphorimager and ImageQuant software.

human DNA polymerase β [3] = target: T2, human DNA polymerase β; assay: Single-turnover analysis of reverse reaction (pyrophosphorolysis / PNP-dependent) on nicked DNA; format: biochemical; set-up: made in house
Protocol: Reaction buffer. All kinetic measurements were performed in a buffer containing 50 mM MES, 25 mM Tris, 25 mM ethanolamine (pH 7.5 adjusted at 37° C.), 100 mM KCl, 10 mM MgCl2 supplemented with 10% glycerol, 100 μg/ml bovine serum albumin, 1 mM DTT, and 0.1 mM EDTA. […] DNA polymerase β was used to fill a 1-nucleotide gapped DNA substrate with either [^32P] dCTP or [^35S] dATP to create a 3'-radiolabeled nicked DNA substrate. The reaction mixture contained 50 mM Tris-Cl, pH 7.4 (37° C.), 100 mM KCl, 10 mM MgCl2, 1 mM DTT, 2.5 μM gapped DNA, […] [^32P] dCTP or [^35S] dATP. The single-nucleotide DNA substrate was similar to the nicked substrate described above, except the primer strand was one nucleotide shorter (3'-nucleotide deleted). Gap filling was initiated by addition of pol β and incubated at 37° C. for 5-10 min. The reaction was quenched by addition of 0.5 M EDTA (0.1 vol). To remove enzyme and unincorporated nucleotides, the mixture was extracted with phenol-chloroform-isoamyl alcohol (25:24:1) followed by two passages through BioSpin 6 columns. Aliquots of the labeling reaction were removed before and following the extraction and removal steps to determine final DNA substrate concentration. Pre- and post-aliquots (1 μl) were spotted onto PEI cellulose plates and developed in 0.375 M KH2PO4, pH 4.0. The ratio (post/preextraction) was used to correct the initial DNA concentration for loss or dilution of substrate. Kinetic parameters for the reverse reaction were determined under single turnover conditions (E/DNA=10) at 37° C. […] Time courses were initiated by mixing with an equal volume of a 20 mM MgCl2 and 50 μM dNTP trap solution in reaction buffer. The dNTP trap prevents re-insertion of radiolabeled product dNTP and corresponds to the identity of the nucleotide triphosphate produced during the reaction. […] EDTA (0.1 or 0.2 M) was used as the quenching agent. Substrates and products were resolved by TLC in either 0.2 or 0.3 M NaPi, pH 7.0 buffer. Kinetic analysis. Single-turnover time courses were fit to a single exponential equation to yield the first-order rate constants (kobs) at a given concentration of GMPPNP, PPi or PNP. Under these conditions, kobs was dependent on the concentration of substrate. A secondary plot of the concentration dependence of kobs was hyperbolic and fitted by nonlinear least-squares method to equation (1) where kmax is the intrinsic rate constant for the step limiting the first nucleotide insertion (forward reaction) or removal (reverse reaction). kobs=kmax[S]/[…] (1) […] Unless noted, kinetic constants represent best-fit parameters and their standard error.

human DNA polymerase β [4] = target: T2, human DNA polymerase β; assay: Overall equilibrium constant determination (gapped vs nicked DNA); format: biochemical; set-up: made in house; details: dCTP
Protocol: A mixture of 500 nM pol β with single-nucleotide gapped DNA (pol/DNA=10; templating G or C) containing various concentrations of PPi (500-2,000 μM) or PNP (20, 50, 100 μM) was mixed with an equal volume of 20 mM MgCl2 containing 60-100 nM dCTP or 50 μM dGMPPNP and incubated at 37° C. for various time intervals. Aliquots (10 μl) were withdrawn at various times and quenched with an equal volume of 0.3 M EDTA. The reactions were quenched after 10-80 s and reaction products separated on a sequencing gel. The substrate (gapped DNA) and product (nicked DNA) bands were quantitated, and the overall equilibrium constant calculated; Keq=[nicked DNA][PPi]/[gapped DNA][dCTP] or [nicked DNA] [PNP]/[gapped DNA][dGMPPNP]. The mean and standard error for 6 independent determinations are reported in the text.

human DNA polymerase β [5] = target: T2, human DNA polymerase β; assay: Removal of chain-terminated or mismatched primer termini by reverse reaction; format: biochemical; set-up: made in house; details: G-A or G-T primer terminal mismatch
Protocol: The removal of a terminated primer terminus by the reverse reaction required enzymatic synthesis of the nicked DNA substrate. A pre-incubated mixture of 4 μM pol and 0.4 μM one-nucleotide gapped DNA was mixed 1:1 (v/v) with 20 mM MgCl2 and 0.2 μM various triphosphates of chain-terminating nucleotides ([…], or dFdCTP). The gap-filling reaction proceeded at 37° C. for 10-20 min to generate a terminated nicked DNA substrate. An aliquot was removed and quenched to verify complete gap filling (16-mer). The reverse reaction was initiated by addition of an equal volume of 10 mM MgCl2 and 250 μM PPi or PNP. An aliquot (time=3 min) was removed, quenched, and analyzed on a denaturing gel. The removal of a terminal mismatch by a reverse reaction was followed by incubation of […] Pol with 100 nM 5'-^32P-labeled nicked DNA substrate with a matched (G-C) or mismatched (G-A or G-T) primer terminal base pair for 5 min at 37° C. This was mixed with a solution of 20 mM MgCl2 and 2 mM PPi or PNP (1:1, v/v) to initiate the reaction.

human DNA polymerase β [6] = target: T2, human DNA polymerase β; assay: Qualitative reverse reaction assay with PPi analogs; format: biochemical; set-up: made in house; details: 1 mM PPi analog, 10 mM MgCl2, 5′-32P-labeled nicked DNA
Protocol: Reverse reaction assay. Pol β (1 μM) was pre-incubated with 100 nM nicked DNA containing either a matched or mismatched primer terminus for 5 min at 37° C. in reaction buffer. A solution with 20 mM MgCl2 containing 2 mM PPi or pyrophosphate analog in reaction buffer was used to initiate the reaction. Following mixing, the final concentrations were 500 nM pol β, 50 nM nicked DNA, 10 mM MgCl2, and 1 mM PPi or pyrophosphate analog. Aliquots (5 or 10 μl) were removed at various times and quenched in an equal volume of 0.3 M EDTA, pH 8.0. Reaction substrates and products were separated and visualized as described above.

human DNA polymerase β [7] = target: T2, human DNA polymerase β; assay: Gap filling DNA synthesis kinetic assay (single-turnover insertion); format: biochemical; set-up: made in house
Protocol: Gap filling DNA synthesis kinetic assay. To measure the rate of the first insertion (kpol) and apparent equilibrium nucleotide dissociation constant (Kd), single-turnover kinetic assays (enzyme/DNA=10) were performed as described previously. Briefly, a pre-incubated solution of enzyme and DNA was rapidly mixed with various concentrations of MgCl2 and dGMPPNP using a Kintek RQF-3 rapid quench-flow. Reactions were quenched with 0.25 M EDTA.
where S=dGMPPNP, PPi, or PNP. For the insertion of dGMPPNP, the secondary plot was fit to a quadratic equation (equation (2)) due to its high affinity relative to the enzyme concentration.
kobs=(kpol)(((Kd+[dGMPPNP]+[EDNA])((Kd+[dGMPPNP]+[EDNA])^2)−(4[dGMPPNP][EDNA]))^0.5)/2[EDNA] (2)

[8] = single-turnover gap filling, relative to natural nucleotide

complexes that had undergone a reverse reaction (occupancy refinement) ([1]; short Mg2+ soak of PNP-Ca2+ ternary complex crystals): approximately 40%
Structure (SMILES): O=P(O)(O)NP(=O)(O)O [PNP, imidodiphosphate]

Structure (SMILES): O=P(O)(O)OP(=O)(O)O [PPi, pyrophosphate]
observed rate for the exchange reaction (human DNA polymerase β [2]): 0.028 s⁻¹
reverse reaction in crystals ([1]; binary pol β-nicked DNA crystals soaked with ligand): did not generate dNTP
kobs for removal of 32P-labeled dAMP (human DNA polymerase β [3]; 1 mM PPi, 3′-[32P]dAMP primer terminus, single-turnover): 0.030 s⁻¹
kobs for removal of 35S-labeled dAMP (human DNA polymerase β [3]; 1 mM PPi, 3′-[35S]dAMP (phosphorothioate) primer terminus, single-turnover): 0.039 s⁻¹
Kd (human DNA polymerase β [3]; nicked DNA with 3′-[32P]dCMP, single-turnover, secondary plot of kobs, read-out: apparent PPi binding affinity (Kd)): ~90 µM
observed rate constant for the reverse reaction (krev) (human DNA polymerase β [3]; nicked DNA, single-turnover (enzyme/DNA>1)): ~0.03 s⁻¹
phosphorothioate (thio-elemental) effect krev(O)/krev(S) (human DNA polymerase β [3]; removal of 3′-terminal Rp-phosphorothioate nucleotide vs dAMP): no phosphorothioate elemental effect
calculated equilibrium constant (human DNA polymerase β [4]; 1000 μM PPi): 62,700
calculated equilibrium constant (human DNA polymerase β [4]; 2000 M PPi): 82,300
overall equilibrium constant Keq (human DNA polymerase β [4]; different PPi concentrations, mean and standard error of 6 determinations): 68,700±7,200
removal of a 3′ mismatched nucleotide (human DNA polymerase β [5]): very poor

ability to serve as substrate for the reverse reaction (qualitative) (human DNA polymerase β [6]): poor
Structure (SMILES): O=P(O)(O)C(Cl)(Cl)P(=O)(O)O [clodronate]

Structure (SMILES): Nc1nc2c(ncn2[C@H]2C[C@H](O)[C@@H](COP(=O)(O)OP(=O)(O)NP(=O)(O)O)O2)c(=O)[nH]1 [dGMPPNP, 2′-deoxyguanosine-5′-[(β, γ)-imido]triphosphate]
inhibition of the forward reaction (human DNA polymerase β [7]; binds tightly and is inserted slowly): good inhibitor
binding affinity (human DNA polymerase β [7]; [8]): increased
rate of insertion (human DNA polymerase β [7]; [8]): strongly diminished; also recorded: two orders of magnitude

ability to serve as substrate for the reverse reaction (qualitative) (human DNA polymerase β [6]): moderate
Structure (SMILES): CC(O)(P(=O)(O)O)P(=O)(O)O [etidronate]

ability to serve as substrate for the reverse reaction (qualitative) (human DNA polymerase β [6]): poor
Structure (SMILES): NCCC(O)(P(=O)(O)O)P(=O)(O)O [pamidronate]
